The values that follow come from patent US6608086B2, “Dihydropyridines and new uses thereof” (Synaptic Pharmaceutical Corporation, priority 1993, dated 2003).

Structures can show the parent of a compound that is named as a salt. Where two headings read alike, the source gives them in different places.

Test [1] deals with T1, α1B Human Adrenergic Receptor (Homo sapiens, UniProt P35368).
T1 construct: The entire coding region of α1B (1563 bp); expressed in transfected cells
T1 sequence (P35368 1-520): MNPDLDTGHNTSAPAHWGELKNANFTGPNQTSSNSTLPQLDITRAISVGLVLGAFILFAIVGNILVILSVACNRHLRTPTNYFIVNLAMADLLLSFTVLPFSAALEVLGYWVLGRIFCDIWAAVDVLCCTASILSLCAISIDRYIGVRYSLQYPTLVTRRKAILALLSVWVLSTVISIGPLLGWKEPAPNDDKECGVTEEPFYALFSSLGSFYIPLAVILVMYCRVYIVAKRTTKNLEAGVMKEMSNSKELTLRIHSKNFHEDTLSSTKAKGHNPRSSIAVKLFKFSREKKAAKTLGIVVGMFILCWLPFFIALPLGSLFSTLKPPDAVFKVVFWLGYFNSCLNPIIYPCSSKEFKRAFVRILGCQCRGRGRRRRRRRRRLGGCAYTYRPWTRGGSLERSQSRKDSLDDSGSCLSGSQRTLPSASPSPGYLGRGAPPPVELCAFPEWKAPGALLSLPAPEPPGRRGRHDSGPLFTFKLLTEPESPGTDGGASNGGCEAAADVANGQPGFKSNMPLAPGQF
In words: Radioligand binding, [3H]prazosin, cloned human α1B adrenergic receptor. Summed up: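 Membranes from stably transfected LM(tk−) cells, resuspended in 50 mM Tris-HCl, 1 mM MgCl2, 0.1% ascorbic acid, pH 7.5, were incubated with 0.5 nM [3H]prazosin for 20 min at 37° C. Nonspecific binding defined with 10 μM phentolamine; bound ligand separated by GF/B filtration.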

A further test addresses T2, α2A receptor (Homo sapiens, UniProt P08913).
T2 construct: host or cells: LM(tk-) cells, line L-α2A
T2 sequence (P08913 1-465): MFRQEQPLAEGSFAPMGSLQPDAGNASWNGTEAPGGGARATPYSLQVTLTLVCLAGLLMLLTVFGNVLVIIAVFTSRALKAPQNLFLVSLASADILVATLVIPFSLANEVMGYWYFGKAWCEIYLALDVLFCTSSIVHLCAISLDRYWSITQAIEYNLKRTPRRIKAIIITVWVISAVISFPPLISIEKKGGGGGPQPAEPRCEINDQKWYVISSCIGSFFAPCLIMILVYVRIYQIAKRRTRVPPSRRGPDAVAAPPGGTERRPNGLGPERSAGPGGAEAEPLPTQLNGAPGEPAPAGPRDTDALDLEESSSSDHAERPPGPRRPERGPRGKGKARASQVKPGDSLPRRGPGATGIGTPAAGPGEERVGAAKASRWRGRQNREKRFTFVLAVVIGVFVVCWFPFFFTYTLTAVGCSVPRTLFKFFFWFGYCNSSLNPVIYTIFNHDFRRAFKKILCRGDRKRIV
The test is described as follows: Competition binding, [3H]rauwolscine, human α2A receptor. Summed up:
(§1)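 Equilibrium displacement of [3H]rauwolscine (0.5 nM) measured on membranes from stably transfected LM(tk−) lines, one per α2 subtype, in glycylglycine buffer at pH 7.6. Nonspecific binding set by 10 μM phentolamine; separation by filtration.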

The target in the next test is T3, α2B receptor (Homo sapiens, UniProt P18089).
T3 construct: host or cells: LM(tk-) cells, line L-NGC-α2B
T3 sequence (P18089 1-450): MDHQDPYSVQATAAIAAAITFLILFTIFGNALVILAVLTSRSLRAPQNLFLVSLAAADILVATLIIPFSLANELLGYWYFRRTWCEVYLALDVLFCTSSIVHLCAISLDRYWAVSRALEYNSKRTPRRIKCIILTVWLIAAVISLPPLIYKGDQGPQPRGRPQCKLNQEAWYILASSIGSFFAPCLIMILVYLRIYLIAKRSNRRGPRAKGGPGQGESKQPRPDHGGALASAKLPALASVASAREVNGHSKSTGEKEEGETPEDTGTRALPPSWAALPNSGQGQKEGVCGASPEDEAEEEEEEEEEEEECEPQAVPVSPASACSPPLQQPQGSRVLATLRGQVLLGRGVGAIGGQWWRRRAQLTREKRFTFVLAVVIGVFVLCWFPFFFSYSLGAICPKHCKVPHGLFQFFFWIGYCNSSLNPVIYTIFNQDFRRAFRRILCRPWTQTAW
In words: Competition binding, [3H]rauwolscine, human α2B receptor. In short, it runs like this:
as §1

Another test concerns the target T4, α2C receptor (Homo sapiens, UniProt P18825).
T4 construct: host or cells: LM(tk-) cells, line L-α2C
T4 sequence (P18825 1-462): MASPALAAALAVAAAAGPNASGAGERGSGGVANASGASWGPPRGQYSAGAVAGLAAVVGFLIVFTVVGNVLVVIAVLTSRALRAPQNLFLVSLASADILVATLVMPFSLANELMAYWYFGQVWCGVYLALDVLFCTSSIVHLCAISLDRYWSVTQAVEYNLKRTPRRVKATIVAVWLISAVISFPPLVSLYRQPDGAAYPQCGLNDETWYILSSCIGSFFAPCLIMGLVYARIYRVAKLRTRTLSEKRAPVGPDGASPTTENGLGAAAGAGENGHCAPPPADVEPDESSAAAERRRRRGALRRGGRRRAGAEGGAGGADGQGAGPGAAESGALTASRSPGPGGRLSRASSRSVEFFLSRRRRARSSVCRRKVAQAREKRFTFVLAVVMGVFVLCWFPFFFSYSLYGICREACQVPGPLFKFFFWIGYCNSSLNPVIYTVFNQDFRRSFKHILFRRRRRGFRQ
The test is described as follows: Competition binding, [3H]rauwolscine, human α2C receptor. In short, it runs like this:
as §1

[2] abbreviates: cloned human receptor, LM(tk-) cell membranes, mean, read-out: PKi alpha-1 1b (converted).
Setting [3] is: cloned human receptor in LM(tk-) cell membranes, SEM and n in lines below, read-out: pKi alpha-1 1b (converted).
The mark [4] stands for this setting: [3H]rauwolscine, LM(tk-) cell line L-α2A, SEM and n in lines below, read-out: pKi alpha-2 2a (converted).
[5] abbreviates: [3H]rauwolscine, LM(tk-) cell line L-NGC-α2B, SEM and n in lines below, read-out: pKi alpha-2 2b (converted).
The mark [6] stands for this setting: [3H]rauwolscine, LM(tk-) cell line L-α2C, SEM and n in lines below, read-out: pKi alpha-2 2c (converted).
[7] abbreviates: cloned human receptor in LM(tk-) cell membranes, SEM and n in lines below.
The mark [8] stands for this setting: [3H]rauwolscine, LM(tk-) cell line L-α2A, SEM and n in lines below.
[9] abbreviates: [3H]rauwolscine, LM(tk-) cell line L-NGC-α2B, SEM and n in lines below.
The mark [10] stands for this setting: [3H]rauwolscine, LM(tk-) cell line L-α2C, SEM and n in lines below.

Take `CCNC(=O)C1=C(CC)NC(CC)=C(C(=O)NCCCN2CCC(C(=O)OC)(c3ccccc3)CC2)C1c1ccc([N+](=O)[O-])cc1` (stereo not shown) [Example 180, 2,6-Diethyl-1,4-dihydro-5-(N-ethyl)carboxamido-3-{N-[3-(4-methoxycarbonyl-4-phenylpiperidin-1-yl)propyl]}carboxamido-4-(4-nitrophenyl)pyridine]: the Ki in test [1] (setting [2]) was 851 nM; at α2A receptor, 6920 nM; at α2B receptor (PKi alpha-2 2b) it was 3630 nM; at α2C receptor (PKi alpha-2 2c), 5750 nM.
On to `COC(=O)C1=C(C)NC(C)=C(C(=O)NCCCN2CCC(c3ccccc3)CC2)C1c1cccc([N+](=O)[O-])c1` (stereo not shown) [Example 30, 1,4-Dihydro-3-methoxycarbonyl-2,6-dimethyl-4-(3-nitrophenyl)-5-(N-(3-(4-phenylpiperidin-1-yl)propyl)carboxamido)pyridine], for which the Ki in test [1] (setting [3]) is 53.7 nM; on α2A receptor (setting [4]) it was 117 nM; on α2B receptor (setting [5]) it was 234 nM; on α2C receptor (setting [6]), 49 nM.
For `CCC1=C(C(N)=O)C(c2ccc([N+](=O)[O-])cc2)C(C(=O)NCCCN2CCC(c3ccccc3)CC2)=C(CC)N1` (stereo not shown) [Example 121, 5-Carboxamido-2,6-diethyl-1,4-dihydro-4-(4-nitrophenyl)-3-{N-[3-(4-phenylpiperidin-1-yl)propyl]}carboxamidopyridine], the Ki was 72.4 nM in test [1] (cloned human α1B receptor, LM(tk−) cell membranes, read-out: pKi alpha-1 1b (converted)); 363 nM at α2A receptor ([3H]rauwolscine, human α2A receptor, LM(tk−) cells, read-out: pKi alpha-2 2a (converted)); 257 nM at α2B receptor ([3H]rauwolscine, human α2B receptor, LM(tk−) cells, read-out: pKi alpha-2 2b (converted)); 191 nM at α2C receptor ([3H]rauwolscine, human α2C receptor, LM(tk−) cells, read-out: pKi alpha-2 2c (converted)).
`CC(=O)C1=C(C)NC(COCCN)=C(C(=O)NCCCN2CCC(c3ccccc3)(c3ccccc3)CC2)C1c1ccc([N+](=O)[O-])cc1` (stereo not shown) [Example 237, 5-Acetyl-2-((2-aminoethyl)oxy)methyl-1,4-dihydro-6-methyl-4-(4-nitro)phenyl 3-(N-(3-(4,4-diphenylpiperidin-1-yl)propyl)) carboxamidopyridine]: the Ki in test [1] (PKi alpha-1 1b, cloned human receptor, LM(tk-) cell membranes, mean) was 200 nM; on α2A receptor ([3H]rauwolscine, human receptor, LM(tk-) cell lysates, mean, read-out: PKi alpha-2 2a (converted)), 794 nM; at α2B receptor (PKi alpha-2 2b, [3H]rauwolscine, human receptor, LM(tk-) cell lysates, mean), 851 nM; on α2C receptor ([3H]rauwolscine, human receptor, LM(tk-) cell lysates, mean, read-out: PKi alpha-2 2c (converted)), 324 nM.
Turning to `COC(=O)C1=C(C)NC(C)=C(C(=O)NCCCN2CCCCC2)C1c1ccc([N+](=O)[O-])cc1` (stereo not shown) [Example 51, 1,4-Dihydro-3-methoxycarbonyl-2,6-dimethyl-4-(4-nitrophenyl)-5-{N-[3-(piperidin-1-yl)propyl]}carboxamidopyridine hydrochloride etherate], the Ki was 5010 nM in test [1] (setting [3]), 447 nM on α2A receptor (setting [4]), 513 nM at α2B receptor (setting [5]) and 251 nM on α2C receptor (setting [6]).
On to `CCC1=C(C(=O)OC)C(c2ccc([N+](=O)[O-])cc2)C(C(=O)NCCCN2CCC(C(=O)OC)(c3ccccc3)CC2)=C(COCCN)N1` (stereo not shown) [Example 235, 2-((2-Aminoethyl)oxy)methyl-6-ethyl-1,4-dihydro-5-methoxycarbonyl-3-(N-(3-(4-methoxycarbonyl-4-phenylpiperidin-1-yl)propyl))carboxamido-4-(4-nitro)phenylpyridine], for which the Ki in test [1] (setting [2]) is 219 nM; at α2A receptor, 2400 nM; on α2B receptor (PKi alpha-2 2b), 2950 nM; at α2C receptor (PKi alpha-2 2c) it was 1020 nM.
As for `CCC1=C(C(=O)NCCOC)C(c2ccc([N+](=O)[O-])cc2)C(C(=O)NCCCN2CCC(c3ccccc3)(c3ccccc3)CC2)=C(COC)N1` (stereo not shown) [Example 247, 6-Ethyl-1,4-dihydro-5-N-((2-methoxy)ethyl)carboxamido-2-(methyloxy)methyl-4-(4-nitro)phenyl-3-(N-(3-(4,4-diphenylpiperidin-1-yl)propyl)) carboxamidopyridine], the Ki in test [1] (PKi alpha-1 1b, cloned human α1B receptor, LM(tk-) cell membranes) was 912 nM; at α2A receptor ([3H]rauwolscine, human α2A receptor, LM(tk-) cells, read-out: PKi alpha-2 2a (converted)) it was 589 nM; at α2B receptor (PKi alpha-2 2b, [3H]rauwolscine, human α2B receptor, LM(tk-) cells) it was 479 nM; on α2C receptor ([3H]rauwolscine, human α2C receptor, LM(tk-) cells, read-out: PKi alpha-2 2c (converted)), 302 nM.
Consider `COc1cc2c(c(OC)c1)CCN(CCCNC(=O)C1=C(c3ccoc3)NC(C)=C(C(N)=O)C1c1ccc([N+](=O)[O-])cc1)C2.Cl.O` (stereo not shown) [Example 67], for which the “pKi alpha-1 1b” value in test [1] (setting [7]) was found to be 6.18. Moreover, the “pKi alpha-2 2a” value at α2A receptor (setting [8]) worked out at 6.45. Further, the “pKi alpha-2 2b” value at α2B receptor (setting [9]) stood at 5.79. Also, the “pKi alpha-2 2c” value at α2C receptor (setting [10]) stood at 7.00.
With `CC1=C(C(N)=O)C(c2ccc([N+](=O)[O-])cc2)C(C(=O)NC2CCN(Cc3ccccc3)CC2)=C(c2ccoc2)N1.Cl.O` (stereo not shown) [Example 66], the “pKi alpha-1 1b” value in test [1] (setting [7]) was 5.36. Further, the “pKi alpha-2 2a” value at α2A receptor (setting [8]) turned out to be 5.53. On α2B receptor (setting [9]), the “pKi alpha-2 2b” value came to 5.35. In addition, the “pKi alpha-2 2c” value at α2C receptor (setting [10]) is 6.24.
`COC(=O)C1=C(C)NC(C)=C(C(=O)NCCCN2CCC(c3ccccc3)CC2)C1c1ccc([N+](=O)[O-])cc1` (single isomer, unassigned; (-)) [(−)-45, 1,4-Dihydro-3-methoxycarbonyl-2,6-dimethyl-4-(4-nitrophenyl)-5-{N-[3-(4-phenylpiperidin-1-yl)propyl]}carboxamidopyridine hydrochloride hemihydrate]: the Ki was 9.12 nM in test [1] (setting [3]), 339 nM at α2A receptor (setting [4]), 229 nM at α2B receptor (setting [5]) and 13.8 nM at α2C receptor (setting [6]).
